Laboratory results as given in US11872313B2, “Prodrug compositions, prodrug nanoparticles, and methods of use thereof” (Washington University, priority 2010, dated 2024).
Entries after “also recorded” stand apart in the source; their conditions may differ.

Legend:
[1] = In vivo release of fumagillin dissolved in a lipid membrane; conditions: FIG. 19B
Description: (§1) FIG. 19A and FIG. 19B depicts two graphs illustrating that fumagillin dissolved in a lipid membrane is stable in vitro but rapidly lost in vivo.

[2] = In vitro release of fumagillin dissolved in a lipid membrane; assay type: physicochemical; conditions: FIG. 19A
Description: as §1

[3] = tested on: Vx2 tumor; assay: Vx2 tumor model, angiogenesis MR contrast enhancement; assay type: in vivo, rabbit; conditions: 1.5 T, FIG. 4A

| Structure (SMILES) | In vivo release of fumagillin [1] | In vitro release of fumagillin [2] | change in angiogenesis contrast enhancement [3] |
| --- | --- | --- | --- |
| CO[C@@H]1[C@H](OC(=O)/C=C/C=C/C=C/C=C/C(=O)O)CC[C@]2(CO2)[C@H]1[C@@]1(C)O[C@@H]1CC=C(C)C [fumagillin] | rapidly releases in vivo; also recorded: occurs in a matter of minutes | sustained over 4 days | – |
| CC(=O)O[C@H]1C(=O)[C@@]2(C)[C@H]([C@H](OC(=O)c3ccccc3)[C@]3(O)C[C@H](OC(=O)[C@H](O)[C@@H](NC(=O)c4ccccc4)c4ccccc4)C(C)=C1C3(C)C)[C@]1(OC(C)=O)CO[C@@H]1C[C@@H]2O [non-prodrug paclitaxel, paclitaxel] | – | – | non-significant change |
